These results are taken from PubChem BioAssay AID212 (DTP/NCI, 2004).

Values joined by “and” are separate entries in the source; they are usually repeats but may differ in a detail not shown here. Equal values may be shown once. Inconclusive results are not listed.

The test concerns BDF1 mice, colon carcinoma 38 sc, T/C %. As to the kind of experiment: NCI In Vivo Anticancer Drug Screen. Data for tumor model Colon Carcinoma 38 (subcutaneous) in B6D2F1 (BDF1) mice. The essentials: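 Mice with transplanted tumors are treated with compound or vehicle. Survival or tumor size is then measured in both groups. The ratio of treated to control gives the reported figure.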

Where [1] appears, read: endpoint: median tumor weight (est.), dose: 100.0 mg/kg/injection, schedule: Q07DX002 (ip), vehicle: saline with Tween-80, higher = larger tumour.
[2] abbreviates: endpoint: median tumor weight (est.), dose: 200.0 mg/kg/injection, schedule: Q07DX002 (ip), vehicle: saline with Tween-80, higher = larger tumour.
Where [3] appears, read: endpoint: median tumor weight (est.), dose: 400.0 mg/kg/injection, schedule: Q07DX002 (ip), vehicle: saline with Tween-80, higher = larger tumour.
Setting [4] is: endpoint: median tumor weight (est.), dose: 6.25 mg/kg/injection, schedule: Q07DX002 (ip), vehicle: saline with Tween-80, higher = larger tumour.
[5] abbreviates: endpoint: median tumor weight (est.), dose: 12.5 mg/kg/injection, schedule: Q07DX002 (ip), vehicle: saline with Tween-80, higher = larger tumour.
[6] abbreviates: endpoint: median tumor weight (est.), dose: 25.0 mg/kg/injection, schedule: Q07DX002 (ip), vehicle: saline with Tween-80, higher = larger tumour.
The mark [7] stands for this setting: endpoint: median tumor weight (est.), dose: 50.0 mg/kg/injection, schedule: Q07DX002 (ip), vehicle: saline with Tween-80, higher = larger tumour.
The mark [8] stands for this setting: endpoint: median tumor weight (est.), dose: 3.12 mg/kg/injection, schedule: Q07DX002 (ip), vehicle: saline with Tween-80, higher = larger tumour.
The mark [9] stands for this setting: endpoint: median tumor weight (est.), dose: 12.5 mg/kg/injection, schedule: Q07DX002 (ip), vehicle: saline, higher = larger tumour.
[10] abbreviates: endpoint: median tumor weight (est.), dose: 12.5 mg/kg/injection, schedule: Q07DX002 (ip), vehicle: suspension in saline, higher = larger tumour.
Where [11] appears, read: endpoint: median tumor weight (est.), dose: 25.0 mg/kg/injection, schedule: Q07DX002 (ip), vehicle: suspension in saline, higher = larger tumour.
[12] abbreviates: endpoint: median tumor weight (est.), dose: 50.0 mg/kg/injection, schedule: Q07DX002 (ip), vehicle: saline, higher = larger tumour.
The mark [13] stands for this setting: endpoint: median tumor weight (est.), dose: 50.0 mg/kg/injection, schedule: Q07DX002 (ip), vehicle: suspension in saline, higher = larger tumour.
Where [14] appears, read: endpoint: median tumor weight (est.), dose: 100.0 mg/kg/injection, schedule: Q07DX002 (ip), vehicle: saline, higher = larger tumour.
Where [15] appears, read: endpoint: median tumor weight (est.), dose: 100.0 mg/kg/injection, schedule: Q07DX002 (ip), vehicle: suspension in saline, higher = larger tumour.
[16] abbreviates: endpoint: median tumor weight (est.), dose: 6.25 mg/kg/injection, schedule: Q07DX002 (ip), vehicle: saline, higher = larger tumour.
The mark [17] stands for this setting: endpoint: median tumor weight (est.), dose: 25.0 mg/kg/injection, schedule: Q07DX002 (ip), vehicle: saline, higher = larger tumour.

Regarding `O=C(Nc1cccc(Cl)c1)ON1C(=O)C2C(C1=O)C1(Cl)C(Cl)C(Cl)C2(Cl)C1(Cl)Cl` (configuration not stated), the T/C is 95 % of control under setting [1], 89 % of control under setting [2] and 58 % of control under setting [3].

In the case of `CS(=O)(=O)OCCN(CCOS(C)(=O)=O)c1ccc(C=O)cc1`, the T/C reads like this: under setting [4], 113 % of control; under setting [5], 29 % of control; under setting [6], 57 % of control; under setting [7], 60 % of control.

Consider `CCOC(=O)C(CC(C)C)NC(=O)C(N)Cc1ccc(N(CCCl)CCCl)cc1` (configuration not stated), for which the T/C (endpoint: median tumor weight (est.), dose: 5.0 mg/kg/injection, schedule: Q07DX002 (ip), vehicle: saline, higher = larger tumour) was 43 % of control; the T/C (endpoint: median tumor weight (est.), dose: 5.0 mg/kg/injection, schedule: Q07DX002 (ip), vehicle: water, higher = larger tumour) is 86 % of control; the T/C (endpoint: median tumor weight (est.), dose: 10.0 mg/kg/injection, schedule: Q07DX002 (ip), vehicle: saline, higher = larger tumour) is 65 % of control; the T/C (endpoint: median tumor weight (est.), dose: 10.0 mg/kg/injection, schedule: Q07DX002 (ip), vehicle: water, higher = larger tumour) is 71 % of control; the T/C (endpoint: median tumor weight (est.), dose: 20.0 mg/kg/injection, schedule: Q07DX002 (ip), vehicle: saline, higher = larger tumour) was 31 % of control; the T/C (endpoint: median tumor weight (est.), dose: 20.0 mg/kg/injection, schedule: Q07DX002 (ip), vehicle: water, higher = larger tumour) is 36 % of control.

As for `CCC(=O)Sc1ccccc1C(=O)Nc1ccc(Cl)cc1`, the T/C was 120 % of control under setting [7], 104 % of control under setting [1], 114 % of control under setting [2] and 59 % of control under setting [3].

For `CCOC(=O)c1ccc(NN=NCCF)cc1`, the T/C reads like this: under setting [8], 86 % of control; under setting [4], 94 % of control; under setting [5], 70 % of control; under setting [6], 89 % of control.

Take `COc1c(O)c2c(c3cc(C(=O)N4CCc5c4c(O)c(OC)c4[nH]c(C(=O)N6CC7CC78C6=CC(=O)c6[nH]cc(C)c68)cc54)[nH]c13)CCN2C(N)=O` (configuration not stated): the T/C runs as follows: (endpoint: median tumor weight (est.), dose: 6.25 micrograms/kg/injection, schedule: Q07DX002 (ip), vehicle: DMSO, higher = larger tumour) 122 % of control; (endpoint: median tumor weight (est.), dose: 25.0 micrograms/kg/injection, schedule: Q07DX002 (ip), vehicle: DMSO, higher = larger tumour) 109 % of control; (endpoint: median tumor weight (est.), dose: 50.0 micrograms/kg/injection, schedule: Q07DX002 (ip), vehicle: DMSO, higher = larger tumour) 89 % of control; (endpoint: median tumor weight (est.), dose: 67.0 micrograms/kg/injection, schedule: Q07DX002 (ip), vehicle: other, higher = larger tumour) 89 % of control; (endpoint: median tumor weight (est.), dose: 100.0 micrograms/kg/injection, schedule: Q07DX002 (ip), vehicle: other, higher = larger tumour) 37 % of control.

Consider `COc1cc2cc3cc4cc(OC)c(OC)cc4c(C)[n+]3cc2cc1OC` (tested in a mixture with another compound), for which the T/C reads like this: under setting [9], 74 % of control and 94 % of control; under setting [10], 83 % of control; under setting [11], 85 % of control; under setting [12], 81 % of control and 100 % of control; under setting [13], 98 % of control; under setting [14], 82 % of control and 88 % of control. In addition, the T/C runs as follows: under setting [15], 116 % of control; (endpoint: median tumor weight (est.), dose: 200.0 mg/kg/injection, schedule: Q07DX002 (ip), vehicle: saline, higher = larger tumour) 74 % of control; (endpoint: median tumor weight (est.), dose: 200.0 mg/kg/injection, schedule: Q07DX002 (ip), vehicle: suspension in saline, higher = larger tumour) 50 % of control; (endpoint: median tumor weight (est.), dose: 400.0 mg/kg/injection, schedule: Q07DX002 (ip), vehicle: suspension in saline, higher = larger tumour) 89 % of control.

In the case of `NC(N)=NC(N)=Nc1ccc(-c2ccc(N=C(N)N=C(N)N)cc2)cc1`, the T/C under setting [8] is 72 % of control; the T/C under setting [4] is 61 % of control; the T/C under setting [5] was 75 % of control; the T/C under setting [6] was 69 % of control; the T/C under setting [7] was 58 % of control.

Turning to `NC(=O)Oc1cccc(OC(N)=O)c1`, the T/C reads like this: (endpoint: median tumor weight (est.), dose: 25.0 mg/kg/injection, schedule: Q07DX003 (ip), vehicle: other, higher = larger tumour) 63 % of control; (endpoint: median tumor weight (est.), dose: 50.0 mg/kg/injection, schedule: Q07DX003 (ip), vehicle: other, higher = larger tumour) 103 % of control; (endpoint: median tumor weight (est.), dose: 100.0 mg/kg/injection, schedule: Q07DX003 (ip), vehicle: other, higher = larger tumour) 51 % of control; (endpoint: median tumor weight (est.), dose: 200.0 mg/kg/injection, schedule: Q07DX003 (ip), vehicle: other, higher = larger tumour) 68 % of control; (endpoint: median tumor weight (est.), dose: 400.0 mg/kg/injection, schedule: Q07DX003 (ip), vehicle: other, higher = larger tumour) 75 % of control.

With `c1cc(-c2cc3ccc(C4=NCCN4)cc3[nH]2)ccc1C1=NCCN1`, the T/C runs as follows: under setting [16], 84 % of control; (endpoint: median tumor weight (est.), dose: 6.25 mg/kg/injection, schedule: Q07DX002 (ip), vehicle: suspension in saline, higher = larger tumour) 90 % of control; under setting [9], 92 % of control; under setting [10], 87 % of control; under setting [17], 100 % of control; under setting [11], 105 % of control. Moreover, the T/C under setting [12] is 84 % of control and the T/C under setting [13] was 98 % of control.

As to `CN(C)CCN(C)CC(C)(C)C(=O)/C=C/c1ccccc1`, the T/C was 119 % of control (endpoint: median tumor weight (est.), dose: 31.25 mg/kg/injection, schedule: Q07DX002 (ip), vehicle: saline, higher = larger tumour); 11 % of control (endpoint: median tumor weight (est.), dose: 62.5 mg/kg/injection, schedule: Q07DX002 (ip), vehicle: saline, higher = larger tumour); 52 % of control (endpoint: median tumor weight (est.), dose: 125.0 mg/kg/injection, schedule: Q07DX002 (ip), vehicle: saline, higher = larger tumour).

Turning to `O=C(/C=C(\Cl)C(=O)NO)NO`, the T/C runs as follows: under setting [9], 154 % of control; under setting [10], 82 % of control; under setting [17], 159 % of control; under setting [11], 101 % of control; under setting [12], 175 % of control; under setting [14], 119 % of control. Further, the T/C under setting [15] was 94 % of control.

For the compound `O=C(O)c1c2c(nc3ccccc13)Cc1ccccc1-2`, the T/C was 121 % of control and 100 % of control (endpoint: median tumor weight (est.), dose: 12.5 mg/kg/injection, schedule: Q07DX002 (ip), vehicle: water, higher = larger tumour); 99 % of control (endpoint: median tumor weight (est.), dose: 100.0 mg/kg/injection, schedule: Q07DX002 (ip), vehicle: water, higher = larger tumour); 62 % of control (endpoint: median tumor weight (est.), dose: 200.0 mg/kg/injection, schedule: Q07DX002 (ip), vehicle: water, higher = larger tumour).

For the compound `O=NNc1ccccn1`, the T/C is 98 % of control (endpoint: median tumor weight (est.), dose: 1.56 mg/kg/injection, schedule: Q07DX002 (ip), vehicle: saline, higher = larger tumour); 85 % of control and 96 % of control (endpoint: median tumor weight (est.), dose: 3.12 mg/kg/injection, schedule: Q07DX002 (ip), vehicle: saline, higher = larger tumour); 110 % of control under setting [16]; 120 % of control and 106 % of control under setting [9]; 95 % of control under setting [12].

Consider `O=C1CN(Cc2ccc3c(c2)OCO3)NO1`, for which the T/C is 76 % of control and 89 % of control under setting [5]; 81 % of control and 84 % of control under setting [6].

As for `O=[n+]1c2ccccc2n([O-])c2ccccc21.[Cl][Ni][Cl]`, the T/C is 89 % of control under setting [8], 111 % of control under setting [4], 89 % of control under setting [5] and 97 % of control under setting [6].

As for `CCCCNC(C)[C@]1(O)Cc2c(O)c3c(c(O)c2[C@@H](OC2CC(N)C(O)C(C)O2)C1)C(=O)c1c(OC)cccc1C3=O` (some centres not stated), the T/C runs as follows: (endpoint: median survival time, dose: 16.0 mg/kg/injection, schedule: Q07DX002 (sc), vehicle: saline, higher = longer survival) 113 % of control; (endpoint: median survival time, dose: 26.0 mg/kg/injection, schedule: Q07DX002 (sc), vehicle: saline, higher = longer survival) 151 % of control; (endpoint: median tumor weight (est.), dose: 3.38 mg/kg/injection, schedule: Q07DX002 (ip), vehicle: saline, higher = larger tumour) 89 % of control; (endpoint: median tumor weight (est.), dose: 6.75 mg/kg/injection, schedule: Q07DX002 (ip), vehicle: saline, higher = larger tumour) 88 % of control; (endpoint: median tumor weight (est.), dose: 13.5 mg/kg/injection, schedule: Q07DX002 (ip), vehicle: saline, higher = larger tumour) 81 % of control.

Take `CNC(=O)/C=C/C1=CN2C(=O)c3ccc(C)c(O)c3NC(OC)C2C1` (configuration not stated): the T/C (endpoint: median tumor weight (est.), dose: 0.03 mg/kg/injection, schedule: Q07DX002 (ip), vehicle: saline, higher = larger tumour) is 119 % of control; the T/C (endpoint: median tumor weight (est.), dose: 0.06 mg/kg/injection, schedule: Q07DX002 (ip), vehicle: saline, higher = larger tumour) was 109 % of control; the T/C (endpoint: median tumor weight (est.), dose: 0.25 mg/kg/injection, schedule: Q07DX002 (ip), vehicle: saline, higher = larger tumour) is 103 % of control; the T/C (endpoint: median tumor weight (est.), dose: 0.5 mg/kg/injection, schedule: Q07DX002 (ip), vehicle: saline, higher = larger tumour) was 122 % of control.
